# ChEMBL document CHEMBL4725308, “MK-5204: An orally active β-1,3-glucan synthesis inhibitor” (Bioorg Med Chem Lett, 2020)
# Tests used:
# Aspergillus fumigatus = test: Antifungal activity against Aspergillus fumigatus MF5668 assessed as fungal growth inhibition measured after 24 hrs by liquid microdilution method; format: functional; details: read-out: MEC
# [1] = Inhibition of beta-1,3-glucan synthase in Candida albicans MY1055 microsomal membrane using UDP-[3H]-glucose as substrate incubated for 2 hrs in presence of UTP by radioactivity-based assay; format: cell membranes
# Candida albicans [2] = test: Antifungal activity against Candida albicans MY1055 assessed as fungal growth inhibition measured after 24 hrs in presence of mouse serum by liquid microdilution method; format: functional
# Candida albicans [3] = test: Antifungal activity against Candida albicans MY1055 assessed as fungal growth inhibition measured after 24 hrs by liquid microdilution method; format: functional
# Candida albicans [4] = test: Antifungal activity against Candida albicans MY1055 infected in DBA/2 mouse model assessed as log change in colony forming units in kidney at 6.5 mg/kg, po bid for 2 days and measured after 4 days by TOKA; format: functional; details: time 2 day
# Candida albicans [5] = test: Antifungal activity against Candida albicans MY1055 infected in DBA/2 mouse model assessed as log change in colony forming units in kidney at 25 mg/kg, po bid for 2 days and measured after 4 days by TOKA; format: functional; details: time 2 day
# Candida albicans [6] = test: Antifungal activity against Candida albicans MY1055 infected in DBA mouse model assessed as log change in colony forming units in kidney at 12.5 mg/kg, po bid for 2 days and measured after 4 days by TOKA; format: functional; details: time 2 day
# [7] = Oral bioavailability in mouse; format: ADME, organism-based; details: in vivo
SMILES,minimal effective concentration (Aspergillus fumigatus) [µg/mL],IC50 [1] [µg/mL],MIC (Candida albicans [2]) [µg/mL],MIC (Candida albicans [3]) [µg/mL],Activity (Candida albicans [4]) [log CFU],Activity (Candida albicans [5]) [log CFU],Activity (Candida albicans [6]) [log CFU],bioavailability [7] [%]
CC(C)[C@@H](C)[C@@]1(C)CC[C@]2(C)[C@H]3CC[C@@H]4[C@@]5(COC[C@]4(C)[C@@H](OC[C@](C)(N)C(C)C)[C@H](n4cnc(C#N)n4)C5)C3=CC[C@@]2(C)[C@@H]1C(=O)O,4,0.334,> 32,8,–,–,–,–
CC(C)[C@@H](C)[C@@]1(C)CC[C@]2(C)[C@H]3CC[C@@H]4[C@@]5(COC[C@]4(C)[C@@H](OC[C@](C)(N)C(C)C)[C@H](n4ncnc4S(N)(=O)=O)C5)C3=CC[C@@]2(C)[C@@H]1C(=O)O,< 0.03,0.006,8,0.25,-0.8,-0.7,-0.8,–
CC(C)[C@@H](C)[C@@]1(C)CC[C@]2(C)[C@H]3CC[C@@H]4[C@@]5(COC[C@]4(C)[C@@H](OCC4(N)CCOCC4)[C@H](n4ncnc4C(N)=O)C5)C3=CC[C@@]2(C)[C@@H]1C(=O)O,< 0.03,0.008,2,0.125,–,–,–,–
CC(C)[C@@H](C)[C@@]1(C)CC[C@]2(C)[C@H]3CC[C@@H]4[C@@]5(COC[C@]4(C)[C@@H](OC[C@](C)(N)C(C)C)[C@H](n4ncnc4I)C5)C3=CC[C@@]2(C)[C@@H]1C(=O)O,< 0.03,0.005,16,0.5,–,–,–,–
COC(=O)c1ncnn1[C@@H]1C[C@@]23COC[C@@](C)([C@@H]2CC[C@H]2C3=CC[C@@]3(C)[C@H](C(=O)O)[C@@](C)([C@H](C)C(C)C)CC[C@]23C)[C@H]1OC[C@](C)(N)C(C)C,0.125,0.004,32,1,–,–,–,–
CCNC(=O)c1ncnn1[C@@H]1C[C@@]23COC[C@@](C)([C@@H]2CC[C@H]2C3=CC[C@@]3(C)[C@H](C(=O)O)[C@@](C)([C@H](C)C(C)C)CC[C@]23C)[C@H]1OC[C@](C)(N)C(C)C,< 0.03,0.008,16,0.25,-0.8,-2.8,-1.4,13
CC(C)[C@@H](C)[C@@]1(C)CC[C@]2(C)[C@H]3CC[C@@H]4[C@@]5(COC[C@]4(C)[C@@H](OC[C@](C)(N)C(C)C)[C@H](n4cnnc4C#N)C5)C3=CC[C@@]2(C)[C@@H]1C(=O)O,8,> 1,> 32,16,–,–,–,–
CC(C)[C@@H](C)[C@@]1(C)CC[C@]2(C)[C@H]3CC[C@@H]4[C@@]5(COC[C@]4(C)[C@@H](OC[C@](C)(N)C(C)C)[C@H](n4ncnc4C(=O)N(C)C)C5)C3=CC[C@@]2(C)[C@@H]1C(=O)O,< 0.03,0.009,8,0.25,-1,-2.4,-1.3,16
CC(C)[C@@H](C)[C@@]1(C)CC[C@]2(C)[C@H]3CC[C@@H]4[C@@]5(COC[C@]4(C)[C@@H](OC[C@](C)(N)C(C)C)[C@H](n4cncn4)C5)C3=CC[C@@]2(C)[C@@H]1C(=O)O,< 0.03,0.007,4,0.25,–,–,–,–
CC(C)[C@@H](C)[C@@]1(C)CC[C@]2(C)[C@H]3CC[C@@H]4[C@@]5(COC[C@]4(C)[C@@H](OC[C@](C)(N)C(C)C)[C@H](n4cnc(Cl)n4)C5)C3=CC[C@@]2(C)[C@@H]1C(=O)O,0.25,0.019,> 32,8,–,–,–,–
CC(C)[C@@H](C)[C@@]1(C)CC[C@]2(C)[C@H]3CC[C@@H]4[C@@]5(COC[C@]4(C)[C@@H](OC[C@](C)(N)C(C)C)[C@H](n4ncnc4C#N)C5)C3=CC[C@@]2(C)[C@@H]1C(=O)O,< 0.03,0.006,8,0.125,-0.9,-1.1,0,–
CC(C)[C@@H](C)[C@@]1(C)CC[C@]2(C)[C@H]3CC[C@@H]4[C@@]5(COC[C@]4(C)[C@@H](OC[C@](C)(N)C(C)C)[C@H](n4ncnc4Br)C5)C3=CC[C@@]2(C)[C@@H]1C(=O)O,< 0.03,0.002,8,0.5,-0.2,-2.3,-1.7,33
CC(C)[C@@H](C)[C@@]1(C)CC[C@]2(C)[C@H]3CC[C@@H]4[C@@]5(COC[C@]4(C)[C@@H](OC[C@](C)(N)C(C)C)[C@H](n4ncnc4C(N)=O)C5)C3=CC[C@@]2(C)[C@@H]1C(=O)O,< 0.03,0.005,2,< 0.03,-0.9,-2.5,-0.2,7
CC(C)[C@@H](C)[C@@]1(C)CC[C@]2(C)[C@H]3CC[C@@H]4[C@@]5(COC[C@]4(C)[C@@H](OC[C@](C)(N)C(C)C)[C@H](n4ncnc4N)C5)C3=CC[C@@]2(C)[C@@H]1C(=O)O,0.125,0.01,16,0.25,–,–,–,–
CC(C)[C@@H](C)[C@@]1(C)CC[C@]2(C)[C@H]3CC[C@@H]4[C@@]5(COC[C@]4(C)[C@@H](OC[C@](C)(N)C(C)C)[C@H](n4ncnc4Cl)C5)C3=CC[C@@]2(C)[C@@H]1C(=O)O,< 0.03,0.003,8,0.06,-1.2,-1.9,-2.2,9
CNC(=O)c1ncnn1[C@@H]1C[C@@]23COC[C@@](C)([C@@H]2CC[C@H]2C3=CC[C@@]3(C)[C@H](C(=O)O)[C@@](C)([C@H](C)C(C)C)CC[C@]23C)[C@H]1OC[C@](C)(N)C(C)C,< 0.03,0.004,8,0.125,-0.6,-2.6,-1.6,5
CCSc1ncnn1[C@@H]1C[C@@]23COC[C@@](C)([C@@H]2CC[C@H]2C3=CC[C@@]3(C)[C@H](C(=O)O)[C@@](C)([C@H](C)C(C)C)CC[C@]23C)[C@H]1OC[C@](C)(N)C(C)C,< 0.03,0.009,32,0.5,–,–,–,–
CC(C)[C@@H](C)[C@@]1(C)CC[C@]2(C)[C@H]3CC[C@@H]4[C@@]5(COC[C@]4(C)[C@@H](OCC4(N)CCCCC4)[C@H](n4ncnc4C(N)=O)C5)C3=CC[C@@]2(C)[C@@H]1C(=O)O,< 0.03,0.01,16,0.06,-0.5,-1.8,-1.8,–
CCS(=O)(=O)c1ncnn1[C@@H]1C[C@@]23COC[C@@](C)([C@@H]2CC[C@H]2C3=CC[C@@]3(C)[C@H](C(=O)O)[C@@](C)([C@H](C)C(C)C)CC[C@]23C)[C@H]1OC[C@](C)(N)C(C)C,< 0.03,0.005,8,1,–,–,–,–
CC(C)[C@@H](C)[C@@]1(C)CC[C@]2(C)[C@H]3CC[C@@H]4[C@@]5(COC[C@]4(C)[C@@H](OC[C@](C)(N)C(C)C)[C@H](n4cnnc4Cl)C5)C3=CC[C@@]2(C)[C@@H]1C(=O)O,16,> 1,> 32,32,–,–,–,–
